Experiments:
[1] = system: GABAergic network of BENOs (GABAR); assay: calcium imaging of BENO neuronal network under GABAergic inhibition; assay type: cell-based, human; conditions: for synchrony of the same neurons upon inhibitor washout: after picrotoxin 58 μM and saclofen 330 μM; for synchrony of previously spontaneously synchronized neurons under GABAR inhibition: picrotoxin 58 μM and saclofen 330 μM applied together, BENOs days 30-60, n=3, 4 pairs of cells
Description: To test neuronal network activity, BENOs (days 30-60) were subjected to calcium imaging under GABAergic inhibition (carried out using picrotoxin, 58 μM; saclofen, 330 μM; n=3). GABAR inhibition led to an asynchrony of previously spontaneously synchronized neurons (4 pairs of cells).

[2] = system: bioengineered neuronal organoids (BENOs) from human pluripotent stem cells; assay: qPCR transcript analysis of neuronal and glia markers in BENOs; assay type: cell-based; set-up: PAX6 transcripts: dose or concentration left out as unconfirmed
Description: (§1) In initial attempts, single SMAD pathway inhibition (using noggin) was employed to elicit neural induction, along with the addition of retinoic acid (RA). In the present study, it was tested whether dual SMAD signaling pathway inhibition using noggin and SB431542 during the neural induction phase (days 0-8) might further enhance neurogenesis, e.g., at day 28. Accordingly, NCM containing only noggin, or NCM containing noggin and SB431542, were each investigated.
Numerous conventional protocols in the literature employ neurotrophic factors BDNF and GDNF to improve neuronal survival at the differentiation and maturation stages. Therefore, it was tested whether the addition of BDNF (20 ng/ml) and GDNF (10 ng/ml) to NPEM during culture days 10-28 would result in a higher number of maturing neurons by day 28 (FIG. 4). […]
In all protocols, the differentiation was carried out in Neurobasal™ medium supplemented with B27 and N2. hiPS cells were subjected to neuroectoderm induction (days 0-8) under dual SMAD inhibition (noggin & SB431542) and additional retinoic acid (RA) supplementation to mimic signaling that occurs during embryonic neurogenesis. In protocol 2, the proliferative effects of FGF-2 (day 8-15) in neural progenitor cells (NPCs) were tested. In protocol 3, the effect of Notch inhibitor DAPT in neuronal commitment of NPCs (day 15-28) was tested. In protocol 4, the proliferative effects of TGF-beta 1 for glia cells (day 8-28) were tested. In protocol 5, TGF-beta 1 and DAPT treatments were combined in order to test whether development of glia and neurons can be enhanced simultaneously.
In order to assess the neurogenic and gliogenic potential afforded by the different protocols, tissues were collected at days −1, 0, 3, 8, 15, 28 and 40 (3-6 tissues/time point). Since the treatment until day 8 was identical for all protocols, tissues until that time point were only collected from protocol 1. […] Since treatment with DAPT (protocols 3 and 5) was evidently supporting neurogenesis and TGF-beta 1 appeared to support gliogenesis, the time course analysis was extended for protocol 3 (DAPT) and protocol 5 (DAPT and TGF-beta 1).

[3] = system: bioengineered neuronal organoids (BENOs) from human pluripotent stem cells; assay: whole mount immunofluorescence (neurofilament) analysis of BENOs; assay type: cell-based
Description: as §1
Consequently, it appears advantageous to increase the amount of neural progenitor cells (NPCs) inside the tissue by treating the organoids with FGF-2 (days 8-15). This corresponds to the use of NPEM in the above protocol. To test whether the use of FGF-2 is favorable, tissues (3000 cell/μl) were treated with 10 ng/ml FGF-2 at two different time-points; day −2 to day 0 (before neural induction at the stem cell stage), and day 8 to day 15 at the NPC stage (FIG. 3B).

[4] = protocols 3 and 5, DAPT day 15-28, time course
[5] = SB431542 added to noggin during neural induction (days 0-8) vs noggin only, n=4 tissues/group
[6] = BDNF (20 ng/ml) and GDNF (10 ng/ml) added together, culture days 10-28, analysed day 28

## picrotoxin
[1]
  synchrony of the same neurons upon inhibitor washout: re-synchronized
  synchrony of previously spontaneously synchronized neurons under GABAR inhibition: asynchrony

## NCC(CS(=O)(=O)O)c1ccc(Cl)cc1 (stereo not shown) [saclofen]
[1]
  synchrony of the same neurons upon inhibitor washout: re-synchronized
  synchrony of previously spontaneously synchronized neurons under GABAR inhibition: asynchrony

## FGF-2: member of the fibroblast growth factor family, encoded by the FGF2 gene
[2]; protocol 2, FGF-2 day 8-15, time course days -1 to 40
  level of different markers (OCT4, GFAP, PAX6, MAP2, GRIN1, GABBR2) at any time point: did not significantly influence
[3]; 10 ng/ml FGF-2, day -2-0 and days 8-15 vs days 8-15 only
  neurofilament staining, double treatment vs single treatment: did not seem to be advantageous
[3]; 10 ng/ml FGF-2, day -2 to day 0 (stem cell stage), read at day 28
  neurofilament staining, advantage compared to untreated tissues: did not appear to provide any advantage
[3]; 10 ng/ml FGF-2, days 8-15
  neuronal network complexity at day 28 (IF whole mount staining of neurofilament): more complex neuronal networks
[3]; 10 ng/ml FGF-2, days 8-15 (NPC stage)
  proliferation of the cells including NPCs: markedly induced proliferation

## TGF-beta 1: transforming growth factor beta 1 (Peprotech)
[2]; protocols 4 and 5, TGF-beta 1 day 8-28, by day 40, vs the other 3 protocols
  amount of the glia marker GFAP: higher amounts

## C[C@H](NC(=O)Cc1cc(F)cc(F)c1)C(=O)NC(C(=O)OC(C)(C)C)c1ccccc1 (stereo partly shown) [DAPT]
[2]; DAPT added to NDM, day 15-28
  PAX6 transcripts: increase
[2]; [4]
  amount of the neuronal marker GABBR2: significantly increased
  amount of the neuronal marker GRIN1: significantly increased
  amount of the neuronal marker MAP2: significantly increased
  amount of the neuronal marker PAX 6: significantly increased

## NC(=O)c1ccc(-c2nc(-c3ccc4c(c3)OCO4)c(-c3ccccn3)[nH]2)cc1 [SB431542]
[2]; [5]
  increase of neuronal marker MAP2 (qPCR): 21 fold
  increase of neuronal marker PAX6 (qPCR): 21 fold
[3]; dual SMAD inhibition, noggin and SB431542, days 0-8, vs noggin only, day 28
  amount of maturing neurons (immunofluorescence and PAX6/MAP2 transcripts): clearly observed to be advantageous

B1: GDNF: neurotrophic factor used to improve neuronal survival (protein, UniProt P39905 78-211, looked up)
Glial cell line-derived …: SPDKQMAVLPRRERNRQAAAANPENSRGKGRRGQRGKNRGCVLTAIHLNVTDLGLGYETKEELIFRYCSGSCDAAETTYDKILKNLSRNRRLVSDKVGQACCRPIAFDDDLSFLDDNLVYHILRKHSAKRCGCI
[2]; [6]
  amount of the maturation marker MAP2: do not increase
  amount of the neuronal marker PAX 6: do not increase

B2: BDNF: neurotrophic factor used to improve neuronal survival (protein, UniProt P23560 129-247, looked up)
Neurotrophic factor BDNF: HSDPARRGELSVCDSISEWVTAADKKTAVDMSGGTVTVLEKVPVSKGQLKQYFYETKCNPMGYTKEGCRGIDKRHWNSQCRTTQSYVRALTMDSKKRIGWRFIRIDTSCVCTLTIKRGR
modifications: Neurotrophic factor BDNF
[2]; [6]
  amount of the maturation marker MAP2: do not increase
  amount of the neuronal marker PAX 6: do not increase

Reference: US20250067727A1, “BIOENGINEERED NEURONAL ORGANOIDS (BENOS) AND USES THEREOF” (Georg-August-Universität Göttingen Stiftung Öffentlichen …, priority 2017, published 2025)
